# Laboratory results as given in patent publication US12239714B2, “Phosphatidylserine-binding conjugates” (CANBAS CO., LTD., priority 2021, dated 2025).
# “Also recorded” adds a separate entry of the source.
# Key:
# [1] = system: CT-26 mouse colon cancer cell line; assay: Tumor growth curves of subcutaneously implanted CT-26 in syngeneic BALB/c mice (FIGS. 4A-4D); format: in vivo; details: for mouse body weight, compared with the triple drug combination: 100 μg/mouse iv added to Cisplatin+CBP501+anti-CTLA4, data not shown; for CT26 tumor growth, conjugate added to Cisplatin+CBP501+anti-CTLA4 treatment: 100 μg/mouse iv, day 2×2, day 3×1
# Experimental: BALB/c mice were implanted subcutaneously with 5×10^5 cells mice colon cancer cell line, CT-26WT, at day −10 when the mice were at the age 6 weeks. Six mice made a group for each treatment when the average tumor size was 205 mm^3 (132-279 mm^3). Treatments were done as follows when the mice were at the age 8 weeks with body weight 19.5 to 24.5 g and tumor size were measured three times in a week.
# Dosing schedule (“ip”: intraperitoneal injection; “iv”: intravenous injection): • Diphenhydramine (ip): 10 mg/kg (15 min before Cisplatin/CBP501 on day 1) • Cisplatin (iv): 4 mg/kg (day 1) • CBP501 (iv): 6 mg/kg (day 1) • Anti-CTLA4 antibody (ip) 200 μg/mouse (day2, 4) • TSA005,006 in saline (iv): 100 μg/mouse (day 2×2, day3×1) • TSA015 in HEPES (iv): 100 μg/mouse (day 2×2, day3×1) • Vehicle: saline (iv): 100 μL/mouse (day 2×2, day3×1) Distribution of the Cy5.5 Version of TSA006 (TSA013) in BALB/c Mouse. (FIG. 5)
# [2] = system: CT26 colon cancer cell line; assay: Syngeneic mice model, TSA005 (FIG. 1): growth of subcutaneous CT26 tumor; format: in vivo, BALB/c mice
# Experimental: (§1) All animal studies were conducted according to protocols approved by institutional animal care committee of CanBas Co., Ltd. Six-week-old female BALB/c mice (The Jackson Laboratories Japan, Inc., Kanagawa, Japan) were inoculated subcutaneously in a flank with a suspension of CT26WT cells (5×10^5 cells). Ten days later mice were apportioned into 5 groups (6-8 mice/group) and treatments were initiated on day1.
# The first cycle of the treatments was on day 1 to 5 and the second cycle was on day 10 to 14 as follows.
# Cisplatin: Intravenous injection (i.v.) of Cisplatin 4 mg/kg and 5% Glucose on Day 1 and 10. Saline i.v. on Days 2, 3, 11 and 12.
# Cisplatin+CBP501: Cisplatin 4 mg/kg and CBP501 6 mg/kg i.v. on Day 1 and 10. Saline i.v. on Days 2, 3, 11 and 12.
# Cisplatin+CBP501+anti-CTLA-4 antibody: anti-CTLA4 antibody 200 μg intraperitoneal injection (i.p.) on Days 1 and 5. Cisplatin 4 mg/kg and CBP501 6 mg/kg i.v. on Day 2.
# Cisplatin+CBP501+anti-CTLA-4 antibody+TSA005: anti-CTLA4 antibody 200 μg i.p. on Days 1 and 5. Cisplatin 4 mg/kg and CBP501 6 mg/kg i.v. on Day 2. TSA005 100 μg i.v. twice on Day 3 and once on Day 4.
# Diphenhydramine 10 mg/kg was given i.p. 15 min before CBP501 or 5% Glucose treatment. The size of tumor was measured thrice weekly with a pair of calipers to calculate tumor volume by using the following formula: volume (mm^3)=[(width)^2 (mm)×length (mm)]/2.
# Colon cancer cells from the CT26 cell line were subcutaneously inoculated in BALB/c mice 5×10^5 cells/mouse. The treatment was initiated on day 1, when the tumor sizes of 6-8 mice per test group attained an average size of about 200 mm^3. A cycle of the treatment schedule, dose and the route of treatment are detailed below. […]
# [3] = system: CT26 colon cancer cell line; assay: Syngeneic mice model, TSA005 compared to TSA009 (FIG. 2); format: in vivo, BALB/c mice; details: 100 μg i.v. twice on Day 3 and once on Day 4; one cycle
# Experimental: as §1, with “days later, the” for “days later”, “into 3” for “into 5”, “groups (6” for “groups (6-8”, “on Day 1.” for “on day1.”
# Cisplatin+CBP501+anti-CTLA-4 antibody: anti-CTLA4 antibody 200 μg intraperitoneal injection (i.p.) on Days 3 and 5. Cisplatin 4 mg/kg and CBP501 6 mg/kg i.v. on Day 2. Saline i.v. twice on Day 3 and once on Day 4.
# Cisplatin+CBP501+anti-CTLA-4 antibody+TSA005: anti-CTLA4 antibody 200 μg i.p. on Days 3 and 5. Cisplatin 4 mg/kg and CBP501 6 mg/kg i.v. on Day 2. TSA005 100 μg i.v. twice on Day 3 and once on Day 4.
# Cisplatin+CBP501+anti-CTLA-4 antibody+TSA009: anti-CTLA4 antibody 200 μg i.p. on Days 3 and 5. Cisplatin 4 mg/kg and CBP501 6 mg/kg i.v. on Day 2. […] 100 μg i.v. twice on Day 3 and once on Day 4.
# Diphenhydramine 10 mg/kg was given i.p. 15 min before CBP501 or 5% Glucose treatment. The size of tumor was measured thrice weekly with a pair of calipers to calculate tumor volume by using the following formula: volume (mm^3)=[(width)2 (mm)×length (mm)]/2.
Substance,"mouse body weight, compared with the triple drug combination [1]","CT26 tumor growth, conjugate added to Cisplatin+CBP501+anti-CTLA4 treatment [1]","tumor growth, TSA005 added to the CBP501+cisplatin combination ([2]; TSA005 100 μg i.v. Days 2, 3, 11 and 12, two cycles)","anti-tumor activity of TSA005 in combination with the two-drug or three-drug treatment regimen ([2]; TSA005 100 μg i.v., with CBP501+cisplatin or CBP501+cisplatin+anti-CTLA-4 antibody)","CT26 subcutaneous tumor growth, conjugate added to CBP501+cisplatin+anti-CTLA4 antibody [3]","subcutaneous tumor growth, CBP501+cisplatin combination versus cisplatin alone ([2]; Cisplatin 4 mg/kg and CBP501 6 mg/kg i.v. Day 1 and 10, CT26 in BALB/c mice, acetate salt)"
(GEGKGGr)4-K2-K-Cys(MI-CL264)-NH2 [TSA006],did not change the mouse body weight further,further tumor growth suppression; also recorded: further suppressed the tumor growth,–,–,–,–
(TLVSSLr)4-K2-K-Cys(MI-CL264)-NH2 [TSA005],did not change the mouse body weight further,further tumor growth suppression; also recorded: further suppressed the tumor growth,further suppressed the tumor growth; also recorded: further reduced the growth of the tumor,enhanced anti-tumor activity; also recorded: reduced tumor growth further than the triple drug combination,suppressed CT26 subcutanous tumor growth more,–
(TLVSSLr)8-K4-K2-K-Cys(MI-CL264)-NH2 [TSA009],–,–,–,–,not and deleterious effect,–
"H-(D)p-benzoylphenylalanyl-(D)seryl-(D)tryptophanyl-(D)seryl-(D)pentafluorophenylalanyl-(D)cyclohexylalanyl-(D)arginyl-(D)arginyl- (D)arginyl-(D)glutaminyl-(D)arginyl-(D)arginine acetate salt [CBP501, reference compound]",–,–,–,–,–,suppressed subcutaneous tumor growth much better than cisplatin alone
